Assay results as given in US20120270769A1, “METHODS OF USING MACROCYCLIC INHIBITORS OF SERINE PROTEASE ENZYMES” (priority 2009, published 2012).

test system: tumor metastasis; experiment: not given; details: cited from earlier work

| Structure (SMILES) | activity in an in vivo model of tumor metastasis |
| --- | --- |
| COC(=O)NC(CCC(=O)O)(Cc1cccc(C(=N)N)c1)C(=O)NCC(=O)N[C@H](C=O)CCCNC(=N)N (stereo partly drawn) [CVS-3983] | has shown activity |

target: T1, human matriptase (Homo sapiens, UniProt Q9Y5Y6); experiment: Assay for inhibition of matriptase (fluorogenic AMC substrate); assay type: biochemical; details: calculated from velocity by nonlinear regression, competitive inhibition model (GraphPad Prism 5)
T1 sequence (Q9Y5Y6 1-855): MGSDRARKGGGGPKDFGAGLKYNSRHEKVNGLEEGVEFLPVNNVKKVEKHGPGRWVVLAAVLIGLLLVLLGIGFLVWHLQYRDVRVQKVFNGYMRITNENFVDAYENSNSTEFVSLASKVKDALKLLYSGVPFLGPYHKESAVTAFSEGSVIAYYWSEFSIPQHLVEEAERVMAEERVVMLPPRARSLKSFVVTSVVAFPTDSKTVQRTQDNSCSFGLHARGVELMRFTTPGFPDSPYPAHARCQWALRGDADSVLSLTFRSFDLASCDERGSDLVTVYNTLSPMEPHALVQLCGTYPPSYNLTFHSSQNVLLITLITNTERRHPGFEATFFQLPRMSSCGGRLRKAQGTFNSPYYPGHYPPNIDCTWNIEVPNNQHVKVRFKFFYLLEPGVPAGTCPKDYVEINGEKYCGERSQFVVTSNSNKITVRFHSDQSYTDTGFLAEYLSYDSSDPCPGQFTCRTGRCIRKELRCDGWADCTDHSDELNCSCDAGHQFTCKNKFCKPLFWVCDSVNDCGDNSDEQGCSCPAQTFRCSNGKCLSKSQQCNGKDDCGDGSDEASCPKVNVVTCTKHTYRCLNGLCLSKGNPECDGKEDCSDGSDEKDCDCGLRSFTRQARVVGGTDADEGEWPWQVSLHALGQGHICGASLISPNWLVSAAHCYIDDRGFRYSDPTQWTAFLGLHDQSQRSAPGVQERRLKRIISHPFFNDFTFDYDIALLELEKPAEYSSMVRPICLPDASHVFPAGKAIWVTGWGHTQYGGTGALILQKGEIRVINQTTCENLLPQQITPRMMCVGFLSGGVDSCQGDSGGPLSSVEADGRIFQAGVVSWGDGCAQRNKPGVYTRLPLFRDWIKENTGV
From the text: The following describes an assay for matriptase as a representative serine protease and is based upon reported methods. (Désilets, A.; Longpré, J.-M.; Beaulieu, M.-E.; Leduc, R. FEBS Lett. 2006, 580, 2227-2232.) Similar assays are applicable and available for other serine proteases.
Enzyme activities were monitored by measuring the release of fluorescence from AMC-coupled peptides (excitation, 360 nm; emission, 441 nm) in a FLX-800 TBE microplate reader (Bio-Tek Instruments, Winooski, Vt., USA). The purified human matriptase was active site titrated with the burst titrant 4-methylumbelliferyl-p-guanidino benzoate (MUGB). Enzymatic assays with matriptase were performed in Tris HCl 100 mM containing 500 µg/mL BSA at pH 9. Human soluble furin was expressed, purified, titrated and assayed as described in the literature (Denault, J. B.; Lazure, C.; Day, R; Leduc, R. Protein Expr. Purif. 2000, 19, 113-124.) The purified HAT protein was active-site titrated with MUGB. Assays with HAT were performed in 50 mM Tris-HCl at pH 8.6.
Enzymes were diluted to concentrations ranging from 4 to 12.5 nM for furin, from 2 to 7 nM for matriptase and 20 pM for HAT and incubated with either 10 μM (for initial screening) […] or appropriate dilutions (for kinetic analysis), for example 0, 500, 1000, 2000 nM or 0, 250, 500, 1000, 2500, 5000 nM, of the test compound for 15 min at RT. Residual enzyme activity was measured by following the hydrolysis of a fluorogenic substrate (4 μM Boc-Arg-Val-Arg-Arg-AMC for furin, Boc-Gln-Ala-Arg-AMC for matriptase and 4 μM Boc-Val-Pro-Arg-AMC for HAT) (Bachem Bioscience, King of Prussia, Pa., USA). Saturation curves were performed in the presence of increasing concentrations of test compounds. Data from three independent experiments or more were typically averaged and residual velocities were plotted as a function of test compound concentration. Data were fitted by non-linear regression analysis to Equation (1) (Bieth, J. G. Methods Enzymol. 1995, 248, 59-84.) using the Enzfitter software (Biosoft, Ferguson, Mo., USA).
vi/v0=1−{([E]0+[I]0+Ki(app))−(([E]0+[I]0+Ki(app))^2−4[E]0[I]0)^1/2}/2[E]0 Equation (1): […]
where v0 and vi are the steady-state rates of substrate hydrolysis in the absence and presence of inhibitor, respectively, [E]0, the initial concentration of enzyme, [I]0, the initial concentration of inhibitor and Ki(app) the substrate-dependent equilibrium dissociation constant. The substrate-independent constant Ki was calculated using Equation (2) (Bieth, J. G. Methods Enzymol. 1995, 248, 59-84.),
Kt=Ki(app)(1+[S]0/Km) Equation (2): […]
The table presents results for matriptase inhibition for representative compounds of the invention.
Ki's can be calculated from the velocity using nonlinear regression analysis. The model used is a competitive enzyme inhibition equation where KmObs=Km*(1+[I]/Ki) and Y=Vmax*X/(KmObs+X). X is the substrate concentration. Y the velocity.

| Structure (SMILES) | Ki [µM] |
| --- | --- |
| C[C@@H]1C(=O)N[C@H](Cc2ccc(C(=N)N)cc2)C(=O)NCCCc2ccc(F)cc2OCCN[C@@H](C2CC2)C(=O)N1C [Compound 451] | 1.46 |
| C[C@@H]1CN[C@@H](C2CC2)C(=O)N(C)[C@H](C)C(=O)N[C@H](Cc2ccc(C(=N)N)cc2)C(=O)NCCCc2ccccc2O1 [Compound 459] | 0.245 |

same assay, conditions: residual matriptase velocity with test compound, substrate Boc-Gln-Ala-Arg-AMC; method gives 10 μM for initial screening; lower = more inhibition

| Structure (SMILES) | Velocity (FU/min) |
| --- | --- |
| C[C@@H]1C(=O)N[C@H](Cc2ccc(C(=N)N)cc2)C(=O)NCCCc2ccc(F)cc2OCCN[C@@H](C2CC2)C(=O)N1C [Compound 451] | 1590 |
| C[C@@H]1C(=O)N[C@@H](Cc2ccc(C(=N)N)cc2)C(=O)NCCCc2ccc(F)cc2OCCN[C@@H](C2CC2)C(=O)N1C [Compound 454] | 2190 |
| C[C@H]1C(=O)N[C@H](Cc2ccc(C(=N)N)cc2)C(=O)NCCCc2ccc(F)cc2OCCN[C@@H](C2CC2)C(=O)N1C [Compound 455] | 2440 |
| C[C@@H]1C(=O)N[C@H](Cc2ccc(C(=N)N)cc2)C(=O)NCCCc2ccc(F)cc2OCCN[C@H](C2CC2)C(=O)N1C [Compound 456] | 2250 |
| C[C@@H]1CCc2ccc(F)cc2OCCN[C@@H](C2CC2)C(=O)N(C)[C@H](C)C(=O)N[C@H](Cc2ccc(C(=N)N)cc2)C(=O)N1 [Compound 457] | 1750 |
| C[C@@H]1CN[C@@H](C2CC2)C(=O)N(C)[C@H](C)C(=O)N[C@H](Cc2ccc(C(=N)N)cc2)C(=O)NCCCc2ccc(F)cc2O1 [Compound 458] | 812 |
| C[C@@H]1CN[C@@H](C2CC2)C(=O)N(C)[C@H](C)C(=O)N[C@H](Cc2ccc(C(=N)N)cc2)C(=O)NCCCc2ccccc2O1 [Compound 459] | 140 |
| C[C@@H]1C(=O)N[C@H](Cc2ccc(C(=N)N)cc2)C(=O)NCCCc2ccc(C(=N)N)cc2OCCN[C@@H](C2CC2)C(=O)N1C [Compound 461] | 812 |
| C[C@@H]1C(=O)N[C@H](Cc2ccc(C(=N)N)cc2)C(=O)NCCCc2ccccc2OCCN[C@@H](C2CC2)C(=O)N1C [Compound 464] | 1875 |
| C[C@@H]1C(=O)N[C@H](Cc2ccc(C(=N)N)cc2)C(=O)NC/C=C/c2ccccc2OCCN[C@@H](C2CC2)C(=O)N1C [Compound 465] | 1125 |
| C[C@@H]1NCCOc2cc(F)ccc2CCCNC(=O)[C@@H](Cc2ccc(C(=N)N)cc2)NC(=O)[C@@H](C)N(C)C1=O [Compound 467] | 2300 |
| C[C@@H]1C(=O)N[C@H](Cc2ccc(C(=N)N)cc2)C(=O)NCCc2cccc(c2)CN[C@@H](C2CC2)C(=O)N1C [Compound 473] | 2375 |
| C[C@@H]1C(=O)N[C@H](Cc2ccc(C(=N)N)cc2)C(=O)NCc2ccccc2Sc2ccccc2CN[C@@H](C2CC2)C(=O)N1C [Compound 475] | 2125 |
| C[C@@H]1C(=O)N[C@H](Cc2ccc(C(=N)N)cc2)C(=O)NCCc2ccccc2CCCCN[C@@H](C2CC2)C(=O)N1C [Compound 478] | 2440 |
| C[C@@H]1C(=O)N[C@H](Cc2ccc(C(=N)N)cc2)C(=O)NCCOc2cccc(c2)OCCN[C@@H](C2CC2)C(=O)N1C [Compound 479] | 2190 |
| C[C@@H]1C(=O)N[C@H](Cc2ccc(C(=N)N)cc2)C(=O)NCCCC2CCCCC2OCCN[C@@H](C2CC2)C(=O)N1C (stereo partly drawn) [Compound 480] | 1875 |
| C[C@@H]1C(=O)N[C@H](Cc2ccc(C(=N)N)cc2)C(=O)NCCc2ccccc2OCCN[C@@H](C2CC2)C(=O)N1C [Compound 481] | 1875 |
| C[C@@H]1C(=O)N[C@H](Cc2ccc(C(=N)N)cc2)C(=O)NC/C=C/c2cccc(c2)OCCN[C@@H](C2CC2)C(=O)N1C [Compound 482] | 2500 |
| C[C@@H]1C(=O)N[C@H](CCCCN)C(=O)NCCCc2ccc(F)cc2OCCN[C@@H](C2CC2)C(=O)N1C [Compound 485] | 2625 |
| C[C@@H]1C(=O)N[C@H](CCCN)C(=O)NCCCc2ccc(F)cc2OCCN[C@@H](C2CC2)C(=O)N1C [Compound 487] | 2500 |
| C[C@@H]1C(=O)N[C@H](CCCNC(=N)N)C(=O)NCCCc2ccc(F)cc2OCCN[C@@H](C2CC2)C(=O)N1C [Compound 488] | 2250 |
| C[C@@H]1C(=O)N[C@H](CCC(N)=O)C(=O)NCCCc2ccc(F)cc2OCCN[C@@H](C2CC2)C(=O)N1C [Compound 490] | 2440 |
| C[C@@H]1C(=O)N[C@H](CCCNC(N)=O)C(=O)NCCCc2ccc(F)cc2OCCN[C@@H](C2CC2)C(=O)N1C [Compound 491] | 2440 |
| C[C@@H]1C(=O)N[C@H](CCCCNC(N)=O)C(=O)NCCCc2ccc(F)cc2OCCN[C@@H](C2CC2)C(=O)N1C [Compound 492] | 2440 |
| C[C@@H]1C(=O)N[C@H](Cc2c[nH]cn2)C(=O)NCCCc2ccc(F)cc2OCCN[C@@H](C2CC2)C(=O)N1C [Compound 493] | 2700 |
| C[C@@H]1C(=O)N[C@H](Cc2cccnc2)C(=O)NCCCc2ccc(F)cc2OCCN[C@@H](C2CC2)C(=O)N1C [Compound 494] | 2125 |
| C[C@@H]1C(=O)N[C@H](Cc2ccncc2)C(=O)NCCCc2ccc(F)cc2OCCN[C@@H](C2CC2)C(=O)N1C [Compound 495] | 2700 |
| C[C@@H]1C(=O)N[C@H](Cc2cscn2)C(=O)NCCCc2ccc(F)cc2OCCN[C@@H](C2CC2)C(=O)N1C [Compound 496] | 2700 |
| C[C@@H]1CN[C@@H](C2CC2)C(=O)N(C)[C@H](C)C(=O)N[C@H](Cc2ccc(C(N)=O)cc2)C(=O)NCCCc2ccccc2O1 [Compound 498] | 580 |
| C[C@@H]1C(=O)N[C@H](Cc2ccc(C(N)=O)cc2)C(=O)NCCCc2ccc(C(=N)N)cc2OCCN[C@@H](C2CC2)C(=O)N1C [Compound 499] | 937 |
